Measurements reported in paper PMC8121805, “Discovery of first-in-class inhibitors of ASH1L histone methyltransferase with anti-leukemic activity” (Nature Communications, 2021).
Values joined by “and” are separate entries in the source; they are usually repeats but may differ in a detail not shown here. Identical values can stand only once.

Assays:
Assay type in all cases: cell-based, human
MV4;11 cells [1] = assay: Annexin V apoptosis assay (flow cytometry); conditions: for MV4;11 % Annexin V/PI+ cells: 7 days
RS4;11 cells = assay: MTT cell viability assay; conditions: 7 days
Procedure: (§1) Human leukemia cells K562, MV4;11 and RS4;11 (purchased from ATCC) and KOPN8, MOLM13 (purchased from DSMZ) were cultured in RPMI 1640 (Invitrogen) supplemented with 10% heat inactivated (h.i.) FBS and 1% penicillin/streptomycin (Invitrogen). SET2 cells (purchased from DSMZ) were cultured in RPMI 1640 supplemented with 20% h.i. FBS and 1% penicillin/streptomycin. Cells were plated at 1 × 10^5 to 2 × 10^5 cells/mL depending on cell line and treated with 0.25% DMSO or varying concentrations of compounds and incubated at 37 °C, 5% CO2 incubator for 7 days. Media was changed on day 3 or 4 and compounds were resupplied. […] Cell suspensions (100 μL) were transferred to the 96-well plates for each sample in quadruplicate at the time of media change. At day 7, 10 µL of MTT reagent (M6494, Molecular Probes™) was added to each well of the 96 well plate and incubated at 37 °C for 4 h. The formazan was then solubilized by adding 100 µL acidified 10% SDS solution and incubated at 37 °C overnight. Plates were read for absorbance at 570 nm using a PHERAstar BMG microplate reader. The experiments were performed two times in quadruplicates with calculation of mean and SD for each condition. Data were analyzed in Prism 8.0.0 to obtain GI50 values.

SET2 cells = assay: MTT cell viability assay
Procedure: as §1

KOPN8 cells = assay: Flow cytometry of CD11B expression (differentiation); conditions: 7 days
Procedure: (§2) In addition, 1 × 10^5 cells per sample were stained with Zombie Aqua™ dye (1:100 dilution) for 15 min using the Zombie Aqua™ Fixable Viability Kit (Zombie Aqua™ Fixable Viability Kit, Biolegend®) […] and then for 30 min with an anti-CD11B-PE antibody (982606, ICRF44, Biolegend®) or anti-CD11B-Pacific Blue (101224, BD BioLegend) antibody at 1:50 dilution, according to the No-wash Sequential Staining Protocol described by the manufacturer (BioLegend, Zombie Aqua Fixable Viability Kit). Cells were washed twice with 500 µL PBS containing 1% FBS and resuspended in 200 µL PBS with 1% FBS.

MV4;11 cells [2] = assay: as above; conditions: for MV4;11 % CD11B+ cells: 7 days
Procedure: as §2

[3] = system: MLL fusion target genes in MOLM13 cells; assay: Real time qRT-PCR gene expression; parameters: key to MEIS1 expression / FLT3 expression / HOXA9 expression / MNDA expression / MEF2C expression / DLX2 expression: fold change vs DMSO-treated cells, normalized to HPRT1 (comparative Ct); conditions: for DLX2 expression / FLT3 expression / HOXA9 expression / MEF2C expression / MEIS1 expression / MNDA expression: MOLM13, 7 days, normalized to HPRT1, referenced to DMSO
Procedure: 0.5 × 10^6 – 3 × 10^6 cells from each sample were collected at days 7 or 8 of treatment, centrifuged at 211 xg, and RNA was extracted according to the RNeasy Mini Kit protocol (74106, Qiagen). Extracted RNA was quantified using Nanodrop 2000 UV-Vis spectrophotometer and 0.5–1 µg of total RNA was reverse transcribed into cDNA using High-Capacity cDNA Reverse Transcription Kit (4368814, Applied Biosystems™) according to the manufacturer’s protocol. Real-time PCR was performed using the CFX96 Touch Real-Time PCR Detection System (Bio-Rad). TaqMan Gene Expression Master Mix and TaqMan Gene Expression Assays were purchased from Applied Biosystems. Relative quantification of each gene transcript was carried out using the comparative Ct method as described in the Applied Biosystems User Bulletin no. 2. TaqMan Gene Expression Assays were used: HPRT1: Hs02800695_m1, DLX2: Hs00269993_m1, FLT3: Hs00174690_m1, HOXA9: Hs00365956_m1, MEF2C: Hs00231149_m1, MEIS1: Hs00180020_m1, MNDA: Hs00935905_m1.
Supplementary Figure 10. Effect of AS-nc on gene expression in MLL leukemia cells. (a, b) Quantitative RT-PCR performed in MOLM13 cells (a) or MV4;11 cells (b) after 7 days of treatment with AS-nc. Gene expression was normalized to HPRT1 and referenced to the DMSO treated cells. Representative data from two independent experiments, each performed in triplicates, […]

[4] = system: MLL leukemia cells (MV4;11, MOLM13, KOPN8, RS4;11); assay: MTT cell viability assay, MLL leukemia cells as a group; conditions: Homo sapiens, MLL leukemia cells
Procedure: as §1
Supplementary Figure 4. Cell viability assay for AS-6 in MLL leukemia cell lines. Titration curves from the MTT cell viability assay performed after 7 days of treatment of human MLL1- […]
replicates. Representative graphs are shown from two independent MTT experiments performed […]
Supplementary Figure 7. […] (a)
Titration curves from the MTT cell viability assay performed after 4, 7, and 11 (or 10) days of […]
Titration curves from the MTT cell viability assay performed after 7 days of treatment of KOPN8 , MOLM13 and MV4;11 cell lines harboring MLL1 translocation (MLL1-r) or K562 cell line (non- […]
Representative graphs are shown from two independent MTT experiments performed for each cell line. GI50 values correspond to […]

In the case of `CN1CC(C(=O)NCc2ccc3c(-c4cccc(C(N)=S)c4)cn(C4CCN(S(=O)(=O)C(F)(F)F)CC4)c3c2)C1` [AS-99], the “MV4;11 % Annexin V/PI+ cells” value (MV4;11 cells [1]; 3 uM) is reported as 5.84% and 5.81% and 5.56%, the “MV4;11 % Annexin V/PI+ cells” value (MV4;11 cells [1]; 4.5 uM) is reported as 21.9% and 12.8% and the “apoptosis in the MLL leukemia cells (Annexin V positive cells)” value (MV4;11 cells [1]; MV4;11 and KOPN8) is reported as “induced apoptosis”. The “% activity RS4;11” value (RS4;11 cells; log[compound] -4.92082) was 2.655% and 2.343% and 2.187%, the “% activity RS4;11” value (RS4;11 cells; log[compound] -5.22185) was 2.03% and 1.718% and 1.874% and 2.655% and the “% activity RS4;11” value (RS4;11 cells; log[compound] -5.52288) was 64.3499% and 67.786% and 71.3784%. The “% activity RS4;11” value (RS4;11 cells; log[compound] -5.82391) was 99.4924% and 89.8087% and 86.9973% and 90.4334%, the “% activity RS4;11” value (RS4;11 cells; log[compound] -6.12494) was 82.4678% and 84.9668% and 84.4982% and 89.3401% and the “% activity RS4;11” value (RS4;11 cells; log[compound] -6.42597) was 93.2448% and 101.679% and 103.397%. The GI50 (RS4;11 cells; Homo sapiens, 168 h, RS4;11 (MLL1-r)) was 3.4 ± 0.1 µM, the GI50 (SET2 cells; Homo sapiens, SET-2, 168 h, SET2 (non MLL1-r), MTT, 7 days) was greater than 12 µM and the “% activity SET2” value (SET2 cells; MTT, 7 days, log[compound] -4.92082) was 96.0299% and 95.2049% and 87.6257% and 88.1928%. For the same compound, the “% activity SET2” value (SET2 cells; MTT, 7 days, log[compound] -5.22185) was 99.0204% and 97.9376% and 92.5754% and 93.5035%, the “% activity SET2” value (SET2 cells; MTT, 7 days, log[compound] -5.52288) was 97.5767% and 104.589% and 99.7938% and 98.0407% and the “% activity SET2” value (SET2 cells; MTT, 7 days, log[compound] -5.82391) was 91.6473% and 94.4831% and 88.9662% and 87.9866%. For the same compound, the “% activity SET2” value (SET2 cells; MTT, 7 days, log[compound] -6.12494) was 83.7071% and 89.6365% and 81.1807% and 83.8618%, the “% activity SET2” value (SET2 cells; MTT, 7 days, log[compound] -6.42597) was 83.5525% and 88.76% and 84.5321% and 85.1508% and the “% activity SET2” value (SET2 cells; MTT, 7 days, log[compound] -6.727) was 86.1304% and 85.9242% and 90.513% and 87.1101%. The “effect on proliferation of SET2 cells” value (SET2 cells; leukemia cells without MLL1 translocations) was “no or limited effects at 10 µM or higher concentrations”, the “KOPN8 % CD11B+ cells” value (KOPN8 cells; 1 uM) was 5.69% and 3.82% and 3.42% and the “KOPN8 % CD11B+ cells” value (KOPN8 cells; 2 uM) was 7.78% and 8.76% and 7.98%. For the same compound, the “KOPN8 % CD11B+ cells” value (KOPN8 cells; 3 uM) was 12.9% and 10.3% and 9.53%, the “KOPN8 % CD11B+ cells” value (KOPN8 cells; 4 uM) was 24.5% and 25.6% and the “MV4;11 % CD11B+ cells” value (MV4;11 cells [2]; 3 uM) was 3.77% and 4.48% and 6.27%. The “MV4;11 % CD11B+ cells” value (MV4;11 cells [2]; 6 uM) was 35.3% and 55.8% and 53.8%, the “differentiation in MLL leukemia cells” value (MV4;11 cells [2]; MV4;11 and KOPN8) was “induced differentiation” and the “increased expression of the CD11B differentiation marker” value (MV4;11 cells [2]; MV4;11 and KOPN8) was “up to 50%”. The DLX2 expression ([3]; 2 uM) was 0.56 and 0.75 and 0.61, the FLT3 expression ([3]; 2 uM) was 0.69 and 0.97 and 0.78 and the HOXA9 expression ([3]; 2 uM) was 0.72 and 0.91 and 0.9. The MEF2C expression ([3]; 2 uM) was 0.67 and 0.89 and 0.83, the MEIS1 expression ([3]; 2 uM) was 0.79 and 0.98 and 0.9 and the MNDA expression ([3]; 2 uM) was 1.83 and 1.84 and 1.74. For the same compound, the DLX2 expression ([3]; 4 uM) was 0.44 and 0.5 and 0.58, the FLT3 expression ([3]; 4 uM) was 0.67 and 0.76 and 0.61 and the HOXA9 expression ([3]; 4 uM) was 0.76 and 0.94 and 0.79. For the same compound, the MEF2C expression ([3]; 4 uM) was 0.59 and 0.77 and 0.68, the MEIS1 expression ([3]; 4 uM) was 0.89 and 0.77 and 0.75 and the MNDA expression ([3]; 4 uM) was 2.92 and 2.39 and 3.74. The DLX2 expression ([3]; 6 uM) was 0.53 and 0.54 and 0.7, the FLT3 expression ([3]; 6 uM) was 0.53 and 0.65 and 0.5 and the HOXA9 expression ([3]; 6 uM) was 0.69 and 0.9 and 0.7. For the same compound, the MEF2C expression ([3]; 6 uM) was 0.48 and 0.65 and 0.64, the MEIS1 expression ([3]; 6 uM) was 0.71 and 0.74 and 0.69 and the MNDA expression ([3]; 6 uM) was 3.99 and 3.93 and 2.86. The “expression level of the MNDA differentiation marker” value ([3]; MOLM13 and MV4;11) was “substantial increase”, the “expression of MLL fusion target genes (MEF2C, DLX2, FLT3, HOXA9)” value ([3]; MOLM13 and MV4;11) was “dose-dependent downregulation” and the GI50 [4] was 1.8 to 3.6 µM.
